Results taken from patent US10196401B2, “Spiro-lactam NMDA receptor modulators and uses thereof” (Aptinyx Inc., priority 2016, dated 2019).

What was measured:
NMDAR2A = NMDAR2A (Homo sapiens, UniProt Q12879); test: Potentiation of [3H]MK-801 binding, NMDAR2A; parameters: species or system rat; conditions: NMDAR2A binding profile, wild-type
rats = test: Positive emotional learning (PEL) test, rat 50-kHz ultrasonic vocalizations (USVs); assay type: in vivo
Procedure: Experiments were conducted as described in Burgdorf et al., “The effect of selective breeding for differential rates of 50-kHz ultrasonic vocalizations on emotional behavior in rats,” Devel. Psychobiol., 51:34-46 (2009). Rat 50-kHz ultrasonic vocalization (hedonic USVs) is a validated model for the study of positive affective state and is best elicited by rough-and-tumble play.
The PEL assay measures the acquisition of positive (hedonic) 50-kHz ultrasonic vocalizations (USVs) to a social stimulus, heterospecific rough and tumble play stimulation. Heterospecific rough-and-tumble play stimulation was administered by the experimenter's right hand. […] High frequency ultrasonic vocalizations (USVs) were recorded and analyzed by sonogram with Avasoft SASlab Pro (Germany) as previously described by Burgdorf et al., “Positive emotional learning is regulated in the medial prefrontal cortex by GluN2B-containing NMDA receptors,” Neuroscience, 192:515-523 (2011). Frequency modulated 50-kHz USVs that occurred during each of the no-stimulation periods were quantified to measure PEL. […] Positive emotional learning was measured during the conditioned stimulus (CS) trials preceding the tickle unconditioned stimulus (UCS) trials. […] Running speed for animals to self administer tickling at the end of the 3 min session was also measured. […]

[1] = Plasma protein binding, human; assay type: in vitro ADME; conditions: read-out: plasma protein binding (% bound) (converted)
Procedure: Unbound drug concentration in the brain was also investigated, and plasma protein binding assays were conducted. The following table (% bound) indicates results for Compound A.
Unbound drug concentration in the brain was also investigated, and plasma protein binding assays were conducted. The following table (% bound) indicates results for Compound B.

[2] = Microsomal stability, human; assay type: in vitro ADME
Procedure: (§1) Microsomal and plasma stability of Compound A was investigated. The following table indicates the percent of Compound A remaining after 60 minutes.
(§2) Microsomal and plasma stability of Compound B was investigated. The following table indicates the percent of Compound B remaining after 60 minutes.

[3] = Microsomal stability, rat; assay type: in vitro ADME
Procedure: as §1, §2

Sprague Dawley rats = test: Blast-induced traumatic brain injury/cognitive deficits measured by PEL; assay type: in vivo, rat; conditions: 10 mg/kg PO 1 h post-blast; PEL 48 hours post-blast
From the text: Single blast-induced traumatic brain injury/cognitive deficits were induced, modified for use in rats according to the protocol of Goldstein et al., “Chronic traumatic encephalopathy in blast-exposed military veterans and a blast neurotrauma mouse model,” Science Translational Medicine, Vol. 4, Issue 134, pp. 134ra60, 2012. Male 2-3 month old Sprague Dawley rats were used. Rats were housed in Lucite cages with aspen wood chip bedding, maintained on a 12:12 light:dark cycle (lights on at 5 AM), and given ad libitum access to Purina lab chow (USA) and tap water throughout the study. Rats were first anesthetized using 3.5-4% isoflurane, then the ears were protected with 1.5×1.5 mm foam plugs (Pura-Fit®, Moldex-Metric Inc., Culver City, Calif.), and the rat was placed into a head access rodent thoracic restrainer (Stoelting, USA) to protect the body while allowing the head to move freely. […]
PEL (Positive emotional learning) was conducted 48 hours post-blast. […] High frequency ultrasonic vocalizations (USVs) were recorded and analyzed by sonogram with Avasoft SASlab Pro (Germany) as previously described by Burgdorf et al., “Positive emotional learning is regulated in the medial prefrontal cortex by GluN2B-containing NMDA receptors,” Neuroscience, 192:515-523, 2011. Frequency raodulated 50-kH-z USVs that occurred during each the no-stimulation periods were quantified to measure PEL. […]

Chain of NMDAR2A (Q12879 23-1464, species assumed, other chains not shown): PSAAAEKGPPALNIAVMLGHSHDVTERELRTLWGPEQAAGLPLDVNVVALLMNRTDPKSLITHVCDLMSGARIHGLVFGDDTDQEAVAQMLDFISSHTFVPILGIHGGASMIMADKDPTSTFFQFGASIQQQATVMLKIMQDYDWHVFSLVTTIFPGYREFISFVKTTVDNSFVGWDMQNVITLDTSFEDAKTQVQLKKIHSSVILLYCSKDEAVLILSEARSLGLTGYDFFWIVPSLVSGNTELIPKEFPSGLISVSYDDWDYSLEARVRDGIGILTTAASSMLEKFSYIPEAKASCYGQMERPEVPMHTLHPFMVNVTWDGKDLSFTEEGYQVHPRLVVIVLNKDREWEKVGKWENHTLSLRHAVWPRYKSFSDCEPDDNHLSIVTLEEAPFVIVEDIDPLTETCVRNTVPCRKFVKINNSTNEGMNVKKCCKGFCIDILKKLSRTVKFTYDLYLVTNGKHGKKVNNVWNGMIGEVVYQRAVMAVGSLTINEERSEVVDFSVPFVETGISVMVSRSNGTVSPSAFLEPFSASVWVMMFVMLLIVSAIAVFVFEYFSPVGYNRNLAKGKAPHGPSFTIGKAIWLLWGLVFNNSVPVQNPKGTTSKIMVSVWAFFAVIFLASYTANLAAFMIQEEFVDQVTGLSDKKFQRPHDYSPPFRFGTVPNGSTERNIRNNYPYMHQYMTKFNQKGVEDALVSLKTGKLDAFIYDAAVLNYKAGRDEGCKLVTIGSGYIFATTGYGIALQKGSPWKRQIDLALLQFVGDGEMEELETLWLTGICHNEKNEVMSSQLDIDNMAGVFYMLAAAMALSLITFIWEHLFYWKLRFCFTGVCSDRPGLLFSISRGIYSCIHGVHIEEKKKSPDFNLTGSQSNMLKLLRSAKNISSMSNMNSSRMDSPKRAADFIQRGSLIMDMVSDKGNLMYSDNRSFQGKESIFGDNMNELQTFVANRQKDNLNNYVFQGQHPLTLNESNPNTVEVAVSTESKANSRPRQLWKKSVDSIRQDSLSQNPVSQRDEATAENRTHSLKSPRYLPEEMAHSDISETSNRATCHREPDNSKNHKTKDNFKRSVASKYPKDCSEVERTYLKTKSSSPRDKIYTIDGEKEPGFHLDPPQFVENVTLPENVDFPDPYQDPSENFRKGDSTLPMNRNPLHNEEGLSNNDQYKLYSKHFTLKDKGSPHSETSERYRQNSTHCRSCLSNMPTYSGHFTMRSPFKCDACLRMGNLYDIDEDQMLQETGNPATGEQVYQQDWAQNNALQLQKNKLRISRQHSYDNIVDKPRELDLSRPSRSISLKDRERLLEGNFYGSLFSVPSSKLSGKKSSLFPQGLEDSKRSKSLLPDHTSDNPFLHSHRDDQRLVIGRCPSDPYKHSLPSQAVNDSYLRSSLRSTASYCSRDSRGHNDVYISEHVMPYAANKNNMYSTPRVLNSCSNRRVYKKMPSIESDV

EC50 (NMDAR2A) | fraction unbound [1] | Microsomal stability, percent remaining after 60 minutes [2] | Microsomal stability, percent remaining after 60 minutes [3] | Compound | positive emotional learning as measured by rat USVs (rats; administered one hour prior to PEL testing) | blast-induced cognitive deficits as measured by PEL (Sprague Dawley rats) | positive emotional learning in the rat USVs test (rats; rat, in vivo)
0.00457 nM | 0.741 | 86% | 65% | CC(C)CN1CCC[C@]12CN([C@H](C(N)=O)[C@@H](C)O)C2=O [Compound A, (2S,3R)-3-hydroxy-2-((R)-5-isobutyl-1-oxo-2,5-diazaspiro[3.4]octan-2-yl)butanamide] | increases positive emotional learning | reversed blast-induced cognitive deficits | –
0.977 nM | 0.712 | 87% | 81% | CC(C)CN1CCC[C@@]12CN([C@H](C(N)=O)[C@@H](C)O)C2=O [Compound B, (2S,3R)-3-hydroxy-2-((S)-5-isobutyl-1-oxo-2,5-diazaspiro[3.4]octan-2-yl)butanamide] | – | reversed blast-induced cognitive deficits | increases positive emotional learning
